row,melting point [°C],SMILES
1,153,O=C(NCc1ccccc1)Nc1cc(CNc2ccccc2C(=O)Nc2cccc(C(F)(F)F)c2)ccn1
2,88 to 90,CCN(CCc1ccc(Nc2ncc3c(n2)-c2ccccc2C(c2cccc(Br)c2)C3)cc1)Cc1ccncc1 (configuration not stated)
3,141,CSc1nc(-c2ccc(F)cc2)c(-c2ccnc(OC(C)C)c2)[nH]1
4,105 to 107,O=C1OC(COc2ccc(Cl)cc2Cl)OC1c1ccccc1 (configuration not stated)
5,88 to 90,COC1=C(OC)C(=O)C2=C(CCC(CCn3c(=O)ccc4ccccc43)CC2)C1=O
6,263,CS(=O)C1(c2ccncc2)CNN=C1c1ccc(F)cc1 (configuration not stated)
7,181 to 182,CC(=O)Nc1c(Cl)cc(C(C)=O)c2c1OCCO2
8,151 to 152,COc1cc(C=O)cc(C(F)(F)F)c1O
9,136 to 137,CCCC(=O)Cc1ccc(C(=O)Nc2ccc3cc(CN4CCCCCC4)cnc3c2C)cc1
10,196 to 197,ClC1=Nc2cc(Br)ccc2Oc2cscc21
11,55,CC1Cc2cc(Br)ccc2C1=O (configuration not stated)
12,152 to 154,CCOC(=O)Nc1cc(O)c(Cl)cc1F
13,148 to 150,C/C(=C(\C#N)C(=S)/N=C/N(C)C)N1CCCN(c2ccc(F)c(C)c2)CC1
14,90 to 92,CCCCN(CCCC)CCCOc1ccc(S(=O)(=O)c2c(C(C)(C)C)cn3ccccc23)cc1
15,204 to 206,COc1ccc(N2CN(c3ccccc3)C(N)=C3C=NN=C32)cc1
16,189,CC(C)(C)OC(=O)Nc1ccc(Nc2nc(-c3ccc4cc(OCc5ccccc5)ccc4c3)cc3ccnn23)cc1
17,222,Cc1cc2c(-c3ccccc3)c(CC(=O)NCc3ccccc3)n(C)c(=O)c2cc1C
18,162 to 165,CC(=O)Nc1ccc(O)c(C(=O)C=Cc2ccccc2)c1
19,186 to 188,CCCCOC(=O)c1cc(OC)c(Cc2cnc(N)nc2N)c(OC)c1
20,70 to 72,O=C(OCCOc1ccccc1)c1sc(Cl)nc1C(F)(F)F
21,152 to 154,CN1CCN(c2cc(Sc3ccc(Cl)cc3)nc(-c3ccccc3)n2)CC1
22,167 to 168,COc1ccc(-c2cnn(-c3cccc(C)n3)c(=O)c2)cc1
23,48 to 49,CC(=O)OCCCC(=O)CC(=O)c1ccccc1
24,161,CC(C#Cc1ccc(Oc2c(F)cccc2F)o1)N(O)C(N)=O (configuration not stated)

row,melting point [°C],SMILES
1,242 to 244,Nc1ccc(C2=NNC(=O)Cc3cc4c(cc32)OCO4)cc1
2,52 to 54,CCCc1nn(C)c2c(=O)n(CCCOc3ccc(SC(C)(C)C(=O)OCC)cc3)c(C)nc12
3,122 to 123,COc1ccc(-c2ccccc2C(SCC(=O)c2ccccc2)C(OC(C)=O)C(N)=O)cc1 (configuration not stated)
4,221 to 222,CC(=O)Nc1c(C(=O)c2ccccc2)[nH]c2cccc(Cl)c12
5,154,Cc1ccc(C(=C/C=C/C(=O)Oc2ccc([N+](=O)[O-])cc2)c2ccc(C)cc2)cc1
6,80,CCCCCCOc1ccc(C=[N+]([O-])CCCCCC[N+]([O-])=Cc2ccc(OCCCCCC)cc2)cc1
7,149 to 152,N#CC(CO)Cc1cc(O)c(O)c([N+](=O)[O-])c1 (configuration not stated)
8,264 to 267,O=c1c2cccnc2n(-c2cccc(Cl)c2)c2ccsc12
9,> 250,Cn1ncc(C(=O)N2CCC2)c1C(=O)Nc1ccn2nc(N3CCCC3)nc2c1
10,239 to 241,Cc1nnc2cc(-c3ccccn3)ccn12
11,74,Cc1cc(-c2ccc(C(F)(F)F)cc2)cnc1N=CN(C)C
12,138,Cc1cc(C)c(-c2csc(N)n2)c(C)c1
13,154 to 155,COC(=O)c1cnc(N)c(N)c1
14,93 to 94,CCOc1c(C=NOCc2ccccc2)c(=O)n(C)c(=O)n1C
15,211 to 215,CCSC1=CCC2C3CCC4=CC(=O)C=CC4(C)C3(F)C(OC(C)=O)CC12C (configuration not stated)
16,107 to 108,CCCN(CCC)CCCOc1ccc(S(=O)(=O)c2c(C)cn3ccccc23)cc1
17,96,C[C@@H](C(=O)O)N(C)C(=O)c1cc(C(F)(F)F)cc(N)c1N
18,112,CC(C)c1nc(Cl)c2c(-c3ccc([N+](=O)[O-])o3)nn(C)c2n1
19,209 to 211,O=C(O)c1cccc2c1CCc1ccc(F)cc1S2
20,105,N#Cc1cnc(Nc2ccc(OCCn3cncn3)cc2)nc1-c1ccccc1
21,197 to 200,O=C(N[C@H]1CC[C@H](O)CC1)c1cc(F)cnc1Cl
22,135 to 137,Cc1cccc(C)c1C(=O)N1C(=O)CN(c2ccccc2)C1=O
23,310,Cc1nc2cc(C34CC5CC(CC(C5)C3)C4)cc(-c3cccc(C=C4SC(=S)NC4=O)c3)c2o1
24,157 to 158,O=C1Nc2cc(Cl)ccc2OC1CCCBr (configuration not stated)

row,melting point [°C],SMILES
1,257 to 258,Nc1nn2cc(-c3ccc([N+](=O)[O-])o3)nc2s1
2,91 to 92.5,CC(C)c1nn2ccccc2c1SC#N
3,176 to 178,N#Cc1c2ccccc2c(-c2cc(Br)c(O[C@@H](Cc3ccccc3)C(=O)O)c(Br)c2)c2c1sc1ccccc12
4,161 to 162,COc1ccc(-c2coc3cc(OCC4CO4)ccc3c2=O)cc1OC (configuration not stated)
5,157 to 160,C=CCc1cc(C=C2SC(=S)NC2=O)cc(CC=C)c1O
6,141 to 142,CS(=O)(=O)c1ccc(-c2cnn(-c3cccc(S(C)(=O)=O)c3)c(=O)c2-c2ccc(F)cc2)cc1
7,186 to 188,Cc1cccc(Nc2nc(Cl)nc(Cl)n2)c1C
8,311 to 313,COc1ccc(S(=O)(=O)Nc2ccncc2)c2c1[nH]c1ccccc12
9,170,CCCC(Oc1ccc2c(-c3ccc(Cl)cc3)noc2c1)C(=O)O (configuration not stated)
10,92 to 94,O=C(CCc1ccccc1)NC1CCC(=O)N2CCCC(C(=O)NC3CC(=O)OC3OCc3ccccc3)N2C1=O (configuration not stated)
11,106 to 108,CCOC(=O)C(C)(C)CCCCCOc1ccc(-c2csc(NC(=O)NC3CCCCC3)n2)cc1
12,123 to 125,COC(=O)COc1ccc(C(C)=O)c2ccccc12
13,163 to 166,CC1(C)CC(OC(=O)c2ccc(CN(O)Cc3ccc(C(=O)OC4CC(C)(C)N(OC5CCCCC5)C(C)(C)C4)cc3)cc2)CC(C)(C)N1OC1CCCCC1
14,201 to 202,CCCCCn1ncc2c(N)c(C(N)=O)cnc21
15,81,CC(=O)OC1CC(n2cc(C=CBr)c(=O)[nH]c2=O)OC1C(O)F (configuration not stated)
16,39 to 40,CCOC(=O)CC(=O)c1ccc(F)c(Cl)c1
17,152 to 154,NC(=O)CCCCCCCOc1nc(-c2ccccc2)c(-c2ccccc2)n1-c1ccccc1
18,194,Nc1ccc2c(c1)NC(=O)C2
19,141 to 144,CCOC(=O)Nc1cnn(C)c1S(=O)(=O)NC(=S)NC(C)C
20,97 to 98,Cc1ccc(N=CN(C)SN(C2CCCCC2)C2CCCCC2)c(C)c1
21,186 to 188,CCCc1nc2c(N)nc3ccccc3c2n1CC(C)(C)CC1(C)OCCO1
22,62 to 64,CC(C)S(=O)c1cnc(Cl)c(Cl)c1 (configuration not stated)
23,54,COc1ccc(C=O)cc1CS(=O)(=O)O
24,125 to 126,OC1CCn2c(CCc3ccccc3)nc3cccc1c32 (configuration not stated)

row,melting point [°C],SMILES
1,100 to 103,Clc1ccc(CNc2ccccc2-n2ccnc2)c(Cl)c1
2,223,Cc1ccc(C2(c3ccccc3)OCc3c2cnc(C)c3OCC(=O)O)cc1 (configuration not stated)
3,105 to 110,CCOC(=O)N(c1ccccc1)c1cc(Cl)ccc1N=NC(NC(=O)CCl)(C(=O)OCC)C(=O)OCC
4,109 to 111,COc1ccc(NN=C(Sc2ccc(C)cc2C)C(C)=O)cc1
5,137,O=P(Oc1ccc(-c2ccccc2)cc1)(Oc1ccc(-c2ccccc2)cc1)Oc1ccc(-c2ccccc2)cc1
6,168 to 170,Cc1nnc(C=Cc2ccccc2OCC(O)CCl)s1 (configuration not stated)
7,83 to 85,OCCN1CCC(OC(c2ccccc2)c2ccccc2)CC1
8,116 to 117,c1ccc2c(c1)Cn1ncnc1-2
9,126 to 129,CCOC(=O)c1ccc(NCCOc2ccccc2)cc1
10,79 to 82,CCCCOc1ccc(OCc2ccccc2)c(C(=O)O)c1
11,56 to 58,O=S(CCCCCl)Cc1ccc(Cl)cc1 (configuration not stated)
12,68 to 77,O=C(COC1Cc2cccc(O)c2CC1OCC(=O)N1CCOCC1)N1CCOCC1 (configuration not stated)
13,248 to 250,O=c1[nH]c(=Cc2ccc(OCc3ccccc3)cn2)c(=O)[nH]c1=Cc1ccccn1
14,112,CC(C)(C)OC(=O)NC(CF)CC(=O)O (configuration not stated)
15,136 to 138,CC(C)n1nc(-c2c(-c3ccccc3)nn3ccc(N4CCN(Cc5ccccc5)CC4)cc23)ccc1=O
16,207 to 209,Nc1ccc(OCC2CCN(c3ccncc3)CC2)cc1
17,85 to 87,COC(=O)c1cc(Oc2ccc(Cl)c(C)c2)ccc1[N+](=O)[O-]
18,> 250,O=C1CCCC2=C1C(c1cccnc1)C1=C(CCS1)N2 (configuration not stated)
19,291 to 293,O=C(Nc1ccccc1)NN1CCc2[nH]c(=O)n3nc(-c4ccccc4F)nc3c2C1
20,226 to 227,CC(=O)COC1CC2C3CCC4=CC(=O)C=CC4(C)C3(F)C(O)CC2(C)C1(O)C(=O)CCl (configuration not stated)
21,144 to 145,COn1c(C)nc(N2CCc3ccccc3CC2)c(C#N)c1=O
22,118 to 123,CCS(=O)C1(Cl)CC2C(Cc3ccccc3)C(=O)N2C1C(=O)OCc1ccccc1 (configuration not stated)
23,243 to 245,Nc1ccc(-c2cc3c(N4CCCc5ccccc54)ncnc3[nH]2)cc1
24,143 to 145,Cc1nc2c(OCCCc3ccccc3)cccn2c1CC#N

row,SMILES,melting point [°C]
1,CN(C(=O)C(=O)c1cn(Cc2ccc(Cl)cc2)c2ccccc12)C1=CC(=O)OC1,205 to 208
2,O=[N+]([O-])c1cnc(N2CCN3CCC2CC3)nc1,135 to 139
3,COc1ccc(OC(=O)c2ncn3c2[C@@H]2CCCN2C(=O)c2c(Cl)cccc2-3)cc1,210 to 211
4,COc1ccc2c(c1O)C13CCN(C)C(C2)C1C=C(C)C(=O)C3 (configuration not stated),183 to 185
5,COc1cnc(CS(C)=O)nc1OC(=O)N(C)C (configuration not stated),122
6,O=CNc1cc([N+](=O)[O-])cc([N+](=O)[O-])c1,121 to 123
